Eight molecules from ChEMBL document CHEMBL5291721, “A preclinical secondary pharmacology resource illuminates target-adverse drug reaction associations of marketed drugs” (Nat Commun, 2023) can be followed below.

Among the targets are D(1A) dopamine receptor (Homo sapiens, UniProt P21728); Histamine H3 receptor (Homo sapiens, UniProt Q9Y5N1); Mu-type opioid receptor (Homo sapiens, UniProt P35372); D(3) dopamine receptor (Homo sapiens, UniProt P35462).
In assay [1] the target is 5-hydroxytryptamine receptor 2B (Homo sapiens, UniProt P41595). The format is functional, cell-based.
The target of another assay is Acetylcholinesterase (Homo sapiens, UniProt P22303). Format: functional.
Assay [2] concerns the target Prostaglandin G/H synthase 1 (Homo sapiens, UniProt P23219). The format is functional.
Assay [3] has as its target T1, Thromboxane A2 receptor (Homo sapiens, UniProt P21731).
T1 sequence (P21731 whole entry): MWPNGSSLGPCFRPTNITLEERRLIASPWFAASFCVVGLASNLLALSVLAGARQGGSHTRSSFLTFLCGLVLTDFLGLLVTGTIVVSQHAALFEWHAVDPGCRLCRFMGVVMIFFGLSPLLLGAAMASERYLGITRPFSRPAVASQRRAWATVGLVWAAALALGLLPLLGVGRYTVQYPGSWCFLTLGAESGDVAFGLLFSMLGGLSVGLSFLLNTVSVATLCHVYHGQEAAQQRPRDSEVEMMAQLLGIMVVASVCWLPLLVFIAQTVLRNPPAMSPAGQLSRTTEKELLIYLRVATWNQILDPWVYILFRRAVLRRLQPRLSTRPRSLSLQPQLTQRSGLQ
The format is functional, cell-based.

For assay [4], the target named is 3',5'-cyclic-AMP phosphodiesterase 4A (Homo sapiens, UniProt P27815). The format is functional.
For assay [5], the target named is T1, Thromboxane A2 receptor. The format is functional, cell-based. This is another data set of the same source.
The target in assay [6] is T2, 5-hydroxytryptamine receptor 1A (Homo sapiens, UniProt P08908).
T2 sequence (P08908 whole entry): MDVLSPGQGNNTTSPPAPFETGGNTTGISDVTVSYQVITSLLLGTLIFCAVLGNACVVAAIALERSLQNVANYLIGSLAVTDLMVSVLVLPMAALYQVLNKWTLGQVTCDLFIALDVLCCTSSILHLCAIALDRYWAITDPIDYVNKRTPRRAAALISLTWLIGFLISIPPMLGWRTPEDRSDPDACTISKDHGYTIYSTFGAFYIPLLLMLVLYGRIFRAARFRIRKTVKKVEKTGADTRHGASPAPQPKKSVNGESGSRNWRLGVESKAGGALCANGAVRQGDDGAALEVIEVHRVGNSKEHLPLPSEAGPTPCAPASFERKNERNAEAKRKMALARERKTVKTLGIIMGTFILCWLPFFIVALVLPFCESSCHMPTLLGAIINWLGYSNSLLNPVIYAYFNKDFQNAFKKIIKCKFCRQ

The target of another assay is Prothrombin (Homo sapiens, UniProt P00734). The format is functional.
Assay [7] deals with Sodium-dependent noradrenaline transporter (Homo sapiens, UniProt P23975).
In assay [8] the target is Sodium-dependent dopamine transporter (Homo sapiens, UniProt Q01959).
In another assay the target is T3, Progesterone receptor (Homo sapiens, UniProt P06401).
T3 sequence (P06401 whole entry): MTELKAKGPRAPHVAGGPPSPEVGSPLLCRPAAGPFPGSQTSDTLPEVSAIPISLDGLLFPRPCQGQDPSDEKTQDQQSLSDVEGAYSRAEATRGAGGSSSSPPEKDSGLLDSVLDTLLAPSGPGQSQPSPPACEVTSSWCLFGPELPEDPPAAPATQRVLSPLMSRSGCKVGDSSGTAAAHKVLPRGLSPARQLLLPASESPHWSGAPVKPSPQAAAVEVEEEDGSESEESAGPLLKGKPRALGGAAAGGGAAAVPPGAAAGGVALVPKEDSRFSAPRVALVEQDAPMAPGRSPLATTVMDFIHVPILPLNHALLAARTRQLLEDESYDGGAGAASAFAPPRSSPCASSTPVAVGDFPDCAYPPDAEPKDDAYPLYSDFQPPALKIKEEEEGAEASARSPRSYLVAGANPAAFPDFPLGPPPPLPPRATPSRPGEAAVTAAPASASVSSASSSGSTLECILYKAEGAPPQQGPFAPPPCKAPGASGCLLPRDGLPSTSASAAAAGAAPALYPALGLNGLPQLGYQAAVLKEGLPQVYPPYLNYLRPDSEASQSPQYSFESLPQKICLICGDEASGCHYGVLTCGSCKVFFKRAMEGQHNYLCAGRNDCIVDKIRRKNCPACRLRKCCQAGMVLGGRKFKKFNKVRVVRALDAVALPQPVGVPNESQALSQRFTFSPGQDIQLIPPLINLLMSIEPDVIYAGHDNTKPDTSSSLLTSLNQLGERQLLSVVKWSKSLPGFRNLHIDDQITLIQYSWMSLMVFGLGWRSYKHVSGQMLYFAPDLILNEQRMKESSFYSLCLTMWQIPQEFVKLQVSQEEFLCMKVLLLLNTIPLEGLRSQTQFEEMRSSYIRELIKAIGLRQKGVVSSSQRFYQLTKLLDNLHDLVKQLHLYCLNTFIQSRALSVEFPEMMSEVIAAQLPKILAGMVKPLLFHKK

The target of assay [9] is T4, Alpha-2A adrenergic receptor (Homo sapiens, UniProt P08913).
T4 sequence (P08913 whole entry): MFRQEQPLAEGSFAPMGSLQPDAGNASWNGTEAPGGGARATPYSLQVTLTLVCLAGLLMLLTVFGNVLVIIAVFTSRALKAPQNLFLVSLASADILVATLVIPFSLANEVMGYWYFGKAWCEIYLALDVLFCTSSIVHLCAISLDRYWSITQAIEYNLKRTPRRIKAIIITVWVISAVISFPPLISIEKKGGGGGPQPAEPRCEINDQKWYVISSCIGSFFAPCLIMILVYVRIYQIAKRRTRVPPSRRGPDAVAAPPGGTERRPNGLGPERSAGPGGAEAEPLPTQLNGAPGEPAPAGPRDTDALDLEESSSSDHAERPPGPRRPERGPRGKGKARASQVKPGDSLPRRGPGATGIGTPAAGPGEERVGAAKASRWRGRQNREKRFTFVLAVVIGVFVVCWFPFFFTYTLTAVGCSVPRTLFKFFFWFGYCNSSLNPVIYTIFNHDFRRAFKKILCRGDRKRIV

The target of assay [10] is Voltage-gated inwardly rectifying potassium channel KCNH2 (Homo sapiens, UniProt Q12809). Format: functional.
Also: assay procedure not described here.

Sequence of D(1A) dopamine receptor (P21728 whole entry): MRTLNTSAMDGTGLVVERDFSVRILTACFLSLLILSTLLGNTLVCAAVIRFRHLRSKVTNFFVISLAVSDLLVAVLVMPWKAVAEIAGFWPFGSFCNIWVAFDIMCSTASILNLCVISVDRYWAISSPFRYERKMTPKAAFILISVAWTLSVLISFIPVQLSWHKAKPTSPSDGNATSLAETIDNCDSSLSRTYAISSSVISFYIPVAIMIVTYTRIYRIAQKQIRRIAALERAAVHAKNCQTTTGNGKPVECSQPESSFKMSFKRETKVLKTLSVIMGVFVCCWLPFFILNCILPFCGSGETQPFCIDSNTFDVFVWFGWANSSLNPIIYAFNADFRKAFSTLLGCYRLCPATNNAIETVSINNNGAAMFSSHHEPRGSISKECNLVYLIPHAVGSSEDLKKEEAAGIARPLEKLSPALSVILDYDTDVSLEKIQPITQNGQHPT
Sequence of Sodium-dependent noradrenaline transporter (P23975 whole entry): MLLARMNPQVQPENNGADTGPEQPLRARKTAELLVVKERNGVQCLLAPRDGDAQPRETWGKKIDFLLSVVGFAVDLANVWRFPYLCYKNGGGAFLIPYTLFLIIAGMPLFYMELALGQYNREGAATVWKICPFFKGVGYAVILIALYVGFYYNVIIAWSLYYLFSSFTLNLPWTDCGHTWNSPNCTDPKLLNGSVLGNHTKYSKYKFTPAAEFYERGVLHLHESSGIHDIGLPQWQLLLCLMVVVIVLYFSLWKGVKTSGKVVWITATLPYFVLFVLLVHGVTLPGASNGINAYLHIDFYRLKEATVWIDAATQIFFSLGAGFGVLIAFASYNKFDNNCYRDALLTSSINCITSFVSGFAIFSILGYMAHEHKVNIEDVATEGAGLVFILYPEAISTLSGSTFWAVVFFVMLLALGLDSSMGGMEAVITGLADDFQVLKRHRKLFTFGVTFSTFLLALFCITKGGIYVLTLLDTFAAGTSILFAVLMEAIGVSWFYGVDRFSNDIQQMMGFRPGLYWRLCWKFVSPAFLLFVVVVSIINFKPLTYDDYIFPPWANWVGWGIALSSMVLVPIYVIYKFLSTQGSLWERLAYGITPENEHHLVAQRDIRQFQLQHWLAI
Sequence of 3',5'-cyclic-AMP phosphodiesterase 4A (P27815 whole entry): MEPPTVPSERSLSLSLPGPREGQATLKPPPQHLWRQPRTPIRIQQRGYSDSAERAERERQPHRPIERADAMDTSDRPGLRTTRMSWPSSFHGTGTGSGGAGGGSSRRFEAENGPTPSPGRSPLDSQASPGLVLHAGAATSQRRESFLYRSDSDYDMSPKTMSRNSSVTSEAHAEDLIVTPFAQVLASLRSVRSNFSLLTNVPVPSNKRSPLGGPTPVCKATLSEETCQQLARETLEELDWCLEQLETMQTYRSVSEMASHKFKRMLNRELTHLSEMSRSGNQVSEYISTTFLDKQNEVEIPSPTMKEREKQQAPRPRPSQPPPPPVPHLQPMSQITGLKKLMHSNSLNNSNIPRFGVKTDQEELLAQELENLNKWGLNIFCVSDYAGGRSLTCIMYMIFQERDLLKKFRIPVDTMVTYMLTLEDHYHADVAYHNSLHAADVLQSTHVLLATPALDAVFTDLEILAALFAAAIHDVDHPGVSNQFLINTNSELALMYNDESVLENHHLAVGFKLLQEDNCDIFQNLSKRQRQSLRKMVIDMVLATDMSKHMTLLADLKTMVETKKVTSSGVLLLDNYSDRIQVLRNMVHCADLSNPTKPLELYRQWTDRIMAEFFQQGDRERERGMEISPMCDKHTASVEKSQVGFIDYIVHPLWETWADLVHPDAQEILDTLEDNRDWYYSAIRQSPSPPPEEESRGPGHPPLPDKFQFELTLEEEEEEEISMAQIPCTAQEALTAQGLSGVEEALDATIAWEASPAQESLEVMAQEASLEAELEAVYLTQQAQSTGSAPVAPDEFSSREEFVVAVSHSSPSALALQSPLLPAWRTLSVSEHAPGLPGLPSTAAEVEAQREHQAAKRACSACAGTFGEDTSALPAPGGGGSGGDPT
Sequence of Acetylcholinesterase (P22303 whole entry): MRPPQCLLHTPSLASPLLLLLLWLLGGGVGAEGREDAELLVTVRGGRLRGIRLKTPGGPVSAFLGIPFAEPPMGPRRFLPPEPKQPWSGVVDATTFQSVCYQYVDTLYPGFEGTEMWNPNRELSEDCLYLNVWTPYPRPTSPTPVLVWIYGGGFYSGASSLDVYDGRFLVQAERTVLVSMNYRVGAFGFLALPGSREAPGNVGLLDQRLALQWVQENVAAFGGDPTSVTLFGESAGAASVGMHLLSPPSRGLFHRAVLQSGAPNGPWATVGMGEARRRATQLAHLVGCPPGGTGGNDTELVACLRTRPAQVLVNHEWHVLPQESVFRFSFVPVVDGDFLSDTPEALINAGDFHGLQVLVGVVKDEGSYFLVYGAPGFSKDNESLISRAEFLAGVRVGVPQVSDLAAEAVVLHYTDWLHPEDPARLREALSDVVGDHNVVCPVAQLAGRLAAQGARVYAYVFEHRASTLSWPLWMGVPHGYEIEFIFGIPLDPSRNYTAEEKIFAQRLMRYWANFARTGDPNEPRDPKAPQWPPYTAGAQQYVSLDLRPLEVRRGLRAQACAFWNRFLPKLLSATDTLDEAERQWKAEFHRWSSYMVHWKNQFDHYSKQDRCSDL
Sequence of Histamine H3 receptor (Q9Y5N1 whole entry): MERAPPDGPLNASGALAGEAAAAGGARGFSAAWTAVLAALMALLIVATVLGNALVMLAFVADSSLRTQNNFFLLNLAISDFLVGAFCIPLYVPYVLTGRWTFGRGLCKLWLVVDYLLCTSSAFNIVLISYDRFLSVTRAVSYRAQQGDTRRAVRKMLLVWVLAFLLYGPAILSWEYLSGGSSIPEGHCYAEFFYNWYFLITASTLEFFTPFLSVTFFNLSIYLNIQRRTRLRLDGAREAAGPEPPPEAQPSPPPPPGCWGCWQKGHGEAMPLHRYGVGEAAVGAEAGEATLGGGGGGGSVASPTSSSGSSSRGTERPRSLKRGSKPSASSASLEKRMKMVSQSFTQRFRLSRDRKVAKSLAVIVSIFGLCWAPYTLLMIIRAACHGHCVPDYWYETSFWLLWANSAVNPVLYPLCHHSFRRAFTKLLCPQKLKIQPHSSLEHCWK
Sequence of Prostaglandin G/H synthase 1 (P23219 whole entry): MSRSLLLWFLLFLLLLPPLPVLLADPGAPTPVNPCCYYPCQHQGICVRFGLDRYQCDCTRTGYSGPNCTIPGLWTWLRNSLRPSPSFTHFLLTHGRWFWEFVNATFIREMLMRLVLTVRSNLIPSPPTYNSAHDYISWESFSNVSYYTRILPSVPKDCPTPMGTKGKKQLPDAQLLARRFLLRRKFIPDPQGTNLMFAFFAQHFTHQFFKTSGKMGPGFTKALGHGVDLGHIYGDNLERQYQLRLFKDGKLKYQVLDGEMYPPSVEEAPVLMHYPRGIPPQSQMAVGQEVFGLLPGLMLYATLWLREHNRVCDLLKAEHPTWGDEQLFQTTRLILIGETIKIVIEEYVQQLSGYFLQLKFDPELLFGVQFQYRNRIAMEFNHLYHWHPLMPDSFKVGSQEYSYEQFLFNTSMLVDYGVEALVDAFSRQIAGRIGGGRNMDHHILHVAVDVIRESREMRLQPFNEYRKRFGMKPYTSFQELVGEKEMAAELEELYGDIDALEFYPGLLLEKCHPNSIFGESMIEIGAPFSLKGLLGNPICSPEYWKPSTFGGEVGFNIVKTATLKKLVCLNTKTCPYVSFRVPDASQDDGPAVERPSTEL
Sequence of Voltage-gated inwardly rectifying potassium channel KCNH2 (Q12809 whole entry): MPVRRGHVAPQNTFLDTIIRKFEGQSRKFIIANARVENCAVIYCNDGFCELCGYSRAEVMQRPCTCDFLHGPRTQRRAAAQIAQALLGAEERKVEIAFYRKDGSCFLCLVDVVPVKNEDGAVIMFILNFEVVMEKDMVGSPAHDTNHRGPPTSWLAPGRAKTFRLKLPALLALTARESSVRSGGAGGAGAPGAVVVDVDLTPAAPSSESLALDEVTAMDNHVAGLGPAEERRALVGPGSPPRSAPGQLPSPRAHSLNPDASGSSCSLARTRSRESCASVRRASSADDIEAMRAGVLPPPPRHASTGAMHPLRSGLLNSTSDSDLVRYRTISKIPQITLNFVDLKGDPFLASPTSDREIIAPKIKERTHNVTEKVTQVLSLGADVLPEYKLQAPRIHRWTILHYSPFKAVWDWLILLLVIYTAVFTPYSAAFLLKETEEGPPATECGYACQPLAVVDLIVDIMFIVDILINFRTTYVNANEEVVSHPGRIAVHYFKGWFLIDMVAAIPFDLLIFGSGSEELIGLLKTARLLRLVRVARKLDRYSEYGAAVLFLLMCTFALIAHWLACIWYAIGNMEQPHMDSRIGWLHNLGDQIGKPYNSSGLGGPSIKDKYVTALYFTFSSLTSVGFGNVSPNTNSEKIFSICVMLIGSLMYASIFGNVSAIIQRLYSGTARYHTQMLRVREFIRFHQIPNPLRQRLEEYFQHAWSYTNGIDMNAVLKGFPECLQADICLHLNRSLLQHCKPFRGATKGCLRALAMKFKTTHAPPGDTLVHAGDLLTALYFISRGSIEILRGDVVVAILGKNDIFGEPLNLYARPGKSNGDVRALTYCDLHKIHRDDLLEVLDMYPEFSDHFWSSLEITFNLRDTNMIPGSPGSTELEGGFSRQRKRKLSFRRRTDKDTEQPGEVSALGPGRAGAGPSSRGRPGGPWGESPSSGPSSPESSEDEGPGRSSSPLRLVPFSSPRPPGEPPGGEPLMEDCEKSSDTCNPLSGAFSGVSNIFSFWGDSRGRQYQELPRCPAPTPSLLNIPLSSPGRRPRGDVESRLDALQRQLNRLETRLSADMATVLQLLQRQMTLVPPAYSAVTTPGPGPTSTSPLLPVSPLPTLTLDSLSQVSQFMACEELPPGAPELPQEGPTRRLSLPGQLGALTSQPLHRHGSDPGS

On to `CCCCc1oc2ccc(NS(C)(=O)=O)cc2c1C(=O)c1ccc(OCCCN(CCCC)CCCC)cc1` [DRONEDARONE], for which the AC50 (in general, the concentration at which the activity in the assay is half-maximal) in assay [1] is greater than 30 µM; on D(1A) dopamine receptor, 5.4 µM; on Acetylcholinesterase it was greater than 30 µM; on Histamine H3 receptor, 28.4 µM; in [2], greater than 30 µM; at Mu-type opioid receptor it was 3.09 µM. Moreover, the AC50 is 14.7 µM on Thromboxane A2 receptor [3]; 16.8 µM in assay [4]; greater than 30 µM on Thromboxane A2 receptor [5]; 1.72 µM in [6]; greater than 30 µM on Prothrombin; 0.642 µM at D(3) dopamine receptor. In addition, the AC50 worked out at 3.98 µM in assay [7], 1.73 µM in assay [8], 0.64 µM on Progesterone receptor and 13.4 µM in assay [9].
`CC(=O)NO` [ACETOHYDROXAMIC ACID]: the AC50 in [1] was greater than 30 µM; on D(1A) dopamine receptor, greater than 30 µM; on Acetylcholinesterase it was greater than 30 µM; at Histamine H3 receptor it was greater than 30 µM; in [2], 21.5 µM; at Mu-type opioid receptor, greater than 30 µM. Also, the AC50 (at Thromboxane A2 receptor [3]; in [4]; at Thromboxane A2 receptor [5]; in assay [6]; at Prothrombin; on D(3) dopamine receptor) was greater than 30 µM each time. Besides, the AC50 (in [7]; in assay [8]; on Progesterone receptor; in [9]) was greater than 30 µM throughout.
As for `C[C@H]1CN(C[C@H](Cc2ccccc2)C(=O)NCC(=O)O)CC[C@@]1(C)c1cccc(O)c1` [ALVIMOPAN], the AC50 (in assay [1]; on D(1A) dopamine receptor; on Acetylcholinesterase; at Histamine H3 receptor; in assay [10]; in [2]) was greater than 30 µM in each case. In addition, the concentration at half-maximal activity (AC50) (at Thromboxane A2 receptor [3]; in assay [4]; at Thromboxane A2 receptor [5]; in assay [6]; on Prothrombin; on D(3) dopamine receptor) was greater than 30 µM throughout. Besides, the AC50 (in assay [7]; in assay [8]; on Progesterone receptor; in assay [9]) was greater than 30 µM each time.
Regarding `N=C(N)N/N=C/c1c(Cl)cccc1Cl` [GUANABENZ], the AC50 in [1] is greater than 30 µM; at D(1A) dopamine receptor, 8.03 µM; at Acetylcholinesterase, greater than 30 µM; on Histamine H3 receptor, greater than 30 µM; in assay [10], greater than 30 µM; in assay [2], greater than 30 µM. In addition, the AC50 was 5.18 µM at Mu-type opioid receptor; 22.2 µM at Thromboxane A2 receptor [3]; greater than 30 µM in assay [4]; greater than 30 µM at Thromboxane A2 receptor [5]; 0.604 µM in [6]; greater than 30 µM at Prothrombin. In addition, the AC50 is 10.5 µM on D(3) dopamine receptor, 8.81 µM in [7], 12.8 µM in assay [8] and greater than 30 µM on Progesterone receptor.
Take `O=C(O)c1ccccc1` [BENZOIC ACID]: the AC50 (in assay [1]; on D(1A) dopamine receptor; at Acetylcholinesterase; on Histamine H3 receptor; in [2]; on Mu-type opioid receptor) was greater than 30 µM in each case. Besides, the AC50 (on Thromboxane A2 receptor [3]; in assay [4]; on Thromboxane A2 receptor [5]; in [6]; on Prothrombin; on D(3) dopamine receptor) was greater than 30 µM each time. For the same molecule, the AC50 (in assay [7]; in assay [8]; on Progesterone receptor; in assay [9]) was greater than 30 µM each time.
With `CC(C)C(=O)Oc1ccc(CO)cc1[C@H](CCN(C(C)C)C(C)C)c1ccccc1` [FESOTERODINE], the AC50 (in assay [1]; on D(1A) dopamine receptor; at Acetylcholinesterase; at Histamine H3 receptor; in assay [2]; on Mu-type opioid receptor) was greater than 30 µM each time. For the same molecule, the AC50 (at Thromboxane A2 receptor [3]; in [4]; at Thromboxane A2 receptor [5]; in [6]; at Prothrombin; at D(3) dopamine receptor) was greater than 30 µM in each case. In addition, the AC50 (in assay [7]; in [8]; at Progesterone receptor; in assay [9]) was greater than 30 µM throughout.
Take `C[N+](C)(C)CCOC(=O)CCC(=O)OCC[N+](C)(C)C` [SUXAMETHONIUM]: the AC50 (in assay [1]; at D(1A) dopamine receptor; at Acetylcholinesterase; on Histamine H3 receptor; in assay [2]; at Mu-type opioid receptor) was greater than 30 µM each time. The AC50 (on Thromboxane A2 receptor [3]; in [4]; at Thromboxane A2 receptor [5]; in assay [6]; on Prothrombin; at D(3) dopamine receptor) was greater than 30 µM in each case. Further, the AC50 in [7] is greater than 30 µM; in assay [8], greater than 30 µM; on Progesterone receptor, greater than 30 µM; in [9] it was 16.6 µM.
Regarding `Cc1cc(C2CCCCC2)n(O)c(=O)c1` [CICLOPIROX], the AC50 (in assay [1]; at D(1A) dopamine receptor; at Acetylcholinesterase; on Histamine H3 receptor; in assay [10]; in assay [2]) was greater than 30 µM in each case. Further, the AC50 on Mu-type opioid receptor is greater than 30 µM; in [4], greater than 30 µM; at Thromboxane A2 receptor [5], 25.4 µM; in assay [6], greater than 30 µM; at Prothrombin, greater than 30 µM; on D(3) dopamine receptor it was greater than 30 µM. In addition, the AC50 (in [7]; in [8]; at Progesterone receptor; in assay [9]) was greater than 30 µM in each case.
